What all share (type): cell-based
Series [1] deals with recombinant NL4-3 virus (nef section replaced with Renilla luciferase gene) in MT-2 cells. Briefly: HIV cell culture assay (antiviral activity, luciferase readout). Conditions: serial dilutions of compound. An outline of the steps:
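Test compound in serial dilution was present while MT-2 cells were infected for 4–5 days with recombinant NL4-3 virus made in 293T cells. Antiviral activity was quantified as Renilla luciferase activity, read with a live-cell substrate. EC50 came from the median-effect equation.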

Another series deals with uninfected MT2 cells. Briefly: Compound cytotoxicity, XTT-based colorimetric assay. Conditions: day 4, XTT. The method in brief:
(§1)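 Run under the antiviral-assay protocol but without virus. Viability was read on day 4 and CC50 values were derived from the readout.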
A general note: Formazan colour is commonly taken as a measure of viable cells.

Assay in series [2]: as above
Conditions: human, uninfected MT2 cells, day 4, XTT. An outline of the steps: as §1

Where [3] appears, read: Renilla, NL43, MT-2 cells infected for 4-5 days with recombinant NL4-3 Renilla luciferase virus.
[4] abbreviates: MT-2 cells infected for 4-5 days with recombinant NL4-3 Renilla luciferase virus.

Our source for the EC50 and CC50 values is patent US11505543B2, “4-oxo-3,4-dihydroquinazoline compounds as inhibitors of human immunodeficiency virus replication” (VIIV HEALTHCARE UK (NO.5) LIMITED, priority 2018, dated 2022).

On to `O=C(Cn1nc(C(F)F)c2c1C(F)(F)[C@@H]1C[C@H]21)N[C@@H](Cc1cc(F)cc(F)c1)c1nc2cc(-c3ccccc3F)ccc2c(=O)n1-c1ccc(Cl)c2c(NS(=O)(=O)C3CC3)nn(CC(F)F)c12` (atropisomer, axis not shown; (aR)) [Example 115, N-((S)-1-(3-(4-chloro-3-(cyclopropanesulfonamido)-1-(2,2-difluoroethyl)-1H-indazol-7-yl)-7-(2-fluorophenyl)-4-oxo-3,4-dihydroquinazolin-2-yl)-2-(3,5-difluorophenyl)ethyl)-2-((3bS,4aR)-3-(difluoromethyl)-5,5-difluoro-3b,4,4a,5-tetrahydro-1H-cyclopropa[3,4]cyclopenta[1,2-c]pyrazol-1-yl)acetamide], for which the EC50 in series [1] (setting [3]) was determined as 0.469 nM. Moreover, the CC50 in the series with uninfected MT2 cells was above 10000 nM.

As for `O=C(Cn1nc(C(F)F)c2c1C(F)(F)[C@@H]1C[C@H]21)N[C@@H](Cc1cc(F)cc(F)c1)c1nc2cc(-c3ccccc3F)ccc2c(=O)n1-c1ccc(Cl)c2c(NS(=O)(=O)C3CC3)nn(CC(F)F)c12` (atropisomer, axis not shown; (aR)) [Example 8, N-((S)-1-(3-(4-chloro-3-(cyclopropanesulfonamido)-1-(2,2-difluoroethyl)-1H-indazol-7-yl)-7-(2-fluorophenyl)-4-oxo-3,4-dihydroquinazolin-2-yl)-2-(3,5-difluorophenyl)ethyl)-2-((3bS,4aR)-3-(difluoromethyl)-5,5-difluoro-3b,4,4a,5-tetrahydro-1H-cyclopropa[3,4]cyclopenta[1,2-c]pyrazol-1-yl)acetamide], the EC50 in series [1] (setting [4]) is 0.613 nM. The CC50 in the series on uninfected MT2 cells is above 1000 nM.

On to `Cn1nc(NS(C)(=O)=O)c2c(Cl)ccc(-n3c([C@H](Cc4cc(F)cc(F)c4)NC(=O)Cn4ccc(C5CC5)n4)nc4cc(-c5ccccc5F)ccc4c3=O)c21` (single isomer, unassigned) [Example 4], for which the EC50 in series [1] (setting [4]) amounted to 1.1 nM. Further, in the series on uninfected MT2 cells, the CC50 is above 1000 nM.

Regarding `Cn1nc(NS(C)(=O)=O)c2c(Cl)ccc(-n3c([C@H](Cc4cc(F)cc(F)c4)NC(=O)Cn4nc(C(F)F)c5c4C(F)(F)[C@@H]4C[C@H]54)nc4cc(-c5ccccc5F)ccc4c3=O)c21` (single isomer, unassigned) [Example 6], the EC50 in series [1] (setting [4]) stood at 0.3 nM. This compound also registered a CC50 in the series with uninfected MT2 cells above 1000 nM.

For the compound `CC(C(=O)N[C@@H](Cc1cc(F)cc(F)c1)c1nc2cc(-c3ccccc3F)ccc2c(=O)n1-c1ccc(Cl)c2c(NS(=O)(=O)C3CC3)nn(CC(F)F)c12)n1ccc(C2CC2)n1` (single isomer, unassigned) [Example 138], the EC50 in series [1] (setting [4]) stood at 9 nM. The same compound gave a CC50 in the series with uninfected MT2 cells above 500 nM.

With `Cn1nc(NS(C)(=O)=O)c2c(Cl)ccc(-n3c([C@H](Cc4cc(F)cc(F)c4)NC(=O)Cn4nc(C(F)F)c5c4C(F)(F)[C@@H]4C[C@H]54)nc4cc(-c5ccccc5F)ccc4c3=O)c21` (single isomer, unassigned) [Example 5], the EC50 in series [1] (setting [3]) worked out at 62.7 nM. Moreover, in the series with uninfected MT2 cells, the CC50 was above 1000 nM.

`O=C(Cn1nc(C(F)F)c2c1C(F)(F)[C@@H]1C[C@H]21)N[C@@H](Cc1cc(F)cc(F)c1)c1nc2cc(-c3ccc(Cl)cc3Cl)ccc2c(=O)n1-c1ccc(S(=O)(=O)N2CCOCC2)cc1` [Example 80, N-((S)-1-(7-(2,4-dichlorophenyl)-3-(4-(morpholinosulfonyl)phenyl)-4-oxo-3,4-dihydroquinazolin-2-yl)-2-(3,5-difluorophenyl)ethyl)-2-((3bS,4aR)-3-(difluoromethyl)-5,5-difluoro-3b,4,4a,5-tetrahydro-1H-cyclopropa[3,4]cyclopenta[1,2-c]pyrazol-1-yl)acetamide]: the EC50 in series [1] (setting [3]) is 8 nM. Also, the CC50 at 4 day in series [2] is above 1000 nM.

Consider `CC(C)c1ccn(CC(=O)N[C@@H](Cc2cc(F)cc(F)c2)c2nc3cc(-c4ccccc4F)ccc3c(=O)n2-c2ccc(Cl)c3c(NS(=O)(=O)C4CC4)nn(CC(F)F)c23)n1` (atropisomer, axis not shown) [Example 135, (S)-N-(1-(3-(4-chloro-3-(cyclopropanesulfonamido)-1-(2,2-difluoroethyl)-1H-indazol-7-yl)-7-(2-fluorophenyl)-4-oxo-3,4-dihydroquinazolin-2-yl)-2-(3,5-difluorophenyl)ethyl)-2-(3-isopropyl-1H-pyrazol-1-yl)acetamide], for which the EC50 in series [1] (setting [3]) worked out at 13 nM. The compound also returned a CC50 at 4 day in series [2] above 1000 nM.

Take `CC(C)Oc1ccccc1-c1ccc2c(=O)n(-c3ccc(Cl)c4c(NS(C)(=O)=O)nn(C)c34)c([C@H](Cc3cc(F)cc(F)c3)NC(=O)Cn3nc(C(F)F)c4c3C(F)(F)[C@@H]3C[C@H]43)nc2c1` [Example 181, N-((S)-1-(3-(4-chloro-1-methyl-3-(methylsulfonamido)-1H-indazol-7-yl)-7-(2-isopropoxyphenyl)-4-oxo-3,4-dihydroquinazolin-2-yl)-2-(3,5-difluorophenyl)ethyl)-2-((3bS,4aR)-3-(difluoromethyl)-5,5-difluoro-3b,4,4a,5-tetrahydro-1H-cyclopropa[3,4]cyclopenta[1,2-c]pyrazol-1-yl)acetamide]: in series [1] (setting [3]), the EC50 was found to be 0.71 nM. In series [2], the half-maximal cytotoxic concentration (CC50) at 4 day was above 500 nM.

For the compound `Cc1cc(Cl)ccc1-c1ccc2c(=O)n(-c3ccc(Cl)c4c(NS(C)(=O)=O)nn(C)c34)c([C@H](Cc3cc(F)cc(F)c3)NC(=O)Cn3nc(C(F)F)c4c3C(F)(F)[C@@H]3C[C@H]43)nc2c1` (atropisomer, axis not shown; (aR)) [Example 90], the EC50 in series [1] (setting [3]) was determined as 5.7 nM. In series [2], the CC50 at 4 day was above 1000 nM.

Broadly, the EC50 is the concentration at which the effect is half-maximal. In general, CC50 refers to the concentration at which the toxic effect on the cells reaches its halfway point.
